Biological target: ROCK2 (human) (UniProt O75116)
Test: Assessment of ROCK2 Kinase Activity

Sequence of ROCK2 (human) (O75116 whole entry, looked up): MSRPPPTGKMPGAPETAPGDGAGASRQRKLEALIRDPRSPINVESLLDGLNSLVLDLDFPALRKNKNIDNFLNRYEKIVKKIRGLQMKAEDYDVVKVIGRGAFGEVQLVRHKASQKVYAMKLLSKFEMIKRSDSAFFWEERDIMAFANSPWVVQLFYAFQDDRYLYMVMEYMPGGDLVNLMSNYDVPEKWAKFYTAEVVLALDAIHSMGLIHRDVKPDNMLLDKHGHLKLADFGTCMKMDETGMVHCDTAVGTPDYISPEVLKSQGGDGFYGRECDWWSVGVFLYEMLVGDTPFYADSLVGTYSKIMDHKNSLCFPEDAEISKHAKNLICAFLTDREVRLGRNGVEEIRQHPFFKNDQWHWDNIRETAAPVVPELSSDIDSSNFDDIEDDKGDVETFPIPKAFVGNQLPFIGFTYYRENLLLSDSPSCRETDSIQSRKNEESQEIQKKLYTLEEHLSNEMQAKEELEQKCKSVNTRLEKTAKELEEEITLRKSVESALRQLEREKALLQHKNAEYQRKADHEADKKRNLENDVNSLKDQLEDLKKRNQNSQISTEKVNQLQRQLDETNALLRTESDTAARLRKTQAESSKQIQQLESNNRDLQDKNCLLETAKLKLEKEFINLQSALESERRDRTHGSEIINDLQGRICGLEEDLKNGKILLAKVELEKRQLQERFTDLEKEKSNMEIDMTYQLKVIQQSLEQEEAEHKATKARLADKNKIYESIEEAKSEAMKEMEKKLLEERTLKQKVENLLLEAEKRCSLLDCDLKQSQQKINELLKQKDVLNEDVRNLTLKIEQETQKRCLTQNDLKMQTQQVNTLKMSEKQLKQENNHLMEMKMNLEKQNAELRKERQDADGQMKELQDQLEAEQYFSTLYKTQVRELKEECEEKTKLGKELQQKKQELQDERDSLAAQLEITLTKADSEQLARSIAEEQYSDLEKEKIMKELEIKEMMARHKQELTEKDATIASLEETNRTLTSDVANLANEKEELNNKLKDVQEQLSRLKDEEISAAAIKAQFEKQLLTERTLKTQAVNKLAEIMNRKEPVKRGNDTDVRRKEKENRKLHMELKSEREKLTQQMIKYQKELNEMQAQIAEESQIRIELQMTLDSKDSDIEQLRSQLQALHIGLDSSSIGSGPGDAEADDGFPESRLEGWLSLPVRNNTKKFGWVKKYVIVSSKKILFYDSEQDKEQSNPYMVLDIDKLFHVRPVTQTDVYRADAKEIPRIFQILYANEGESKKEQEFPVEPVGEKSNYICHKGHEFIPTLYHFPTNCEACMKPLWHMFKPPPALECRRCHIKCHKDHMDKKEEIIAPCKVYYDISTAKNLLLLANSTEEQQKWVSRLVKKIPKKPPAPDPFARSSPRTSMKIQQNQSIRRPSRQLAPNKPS

Row | Compound | IC50
1 | COc1cccc(CNC(=O)c2cn(CCN3CCCC3)c3cc(-c4cn[nH]c4)ccc23)c1 | < 100 nM
2 | COc1ccc2c(c1)CC(c1cc(=O)n3cc(-c4ccncc4)ccc3n1)CO2 (configuration not stated) | 100 to 1000 nM
3 | COc1cccc(CNC(=O)c2c3ccc(-c4ccnc(N)n4)cc3nn2CC2CC2)c1 | 100 to 1000 nM
4 | COc1cccc(CN(CCN(C)C)C(=O)c2nn(CC3CC3)c3cc(-c4cn[nH]c4)ccc23)c1 | < 100 nM
5 | COc1cccc(CNC(=O)c2cn(-c3cccc(C(F)(F)F)c3)c3cc(-c4cn[nH]c4)ccc23)c1 | 100 to 1000 nM
6 | COc1cccc(CNC(=O)c2[nH]c3cc(-c4cn[nH]c4)ccc3c2CN2CCCC2c2ccccc2)c1 (configuration not stated) | 100 to 1000 nM
7 | COc1ccc(CNC(=O)c2c[nH]c3cc(-c4cn[nH]c4)ccc23)cc1 | 100 to 1000 nM
8 | COc1cccc(CNC(=O)c2[nH]c3cc(-c4cn[nH]c4)ccc3c2CN(C)Cc2ccccc2)c1 | 100 to 1000 nM
9 | COc1cccc(CNC(=O)c2c3ccc(-c4cn[nH]c4)cc3nn2CC2CC2)c1 | 100 to 1000 nM
10 | COc1ccccc1CNC(=O)c1cn(CCCO)c2cc(-c3cn[nH]c3)ccc12 | < 100 nM
11 | COc1cccc(CCNC(=O)c2cn(CCN(C)C)c3cc(-c4cn[nH]c4)ccc23)c1 | 100 to 1000 nM
12 | COc1cccc([C@@H](C)NC(=O)c2cn(CCN3CCCC3)c3cc(-c4cn[nH]c4)ccc23)c1 | < 100 nM
13 | COc1cccc(CNC(=O)c2cn3cc(-c4cn[nH]c4)ccc3n2)c1 | 100 to 1000 nM
14 | COc1cccc(CN(C)C(=O)c2cn(CCCO)c3cc(-c4cn[nH]c4)ccc23)c1 | < 100 nM
15 | CCCn1nc(C(=O)NCc2cccc(OC)c2)c2ccc(-c3cn[nH]c3)cc21 | < 100 nM
16 | COc1cccc(CNC(=O)c2cn3cc(-c4ccnc(N)n4)ccc3n2)c1 | 100 to 1000 nM
17 | COc1cccc(CNC(=O)c2cc3ccc(-c4c[nH]nc4C)nc3[nH]2)c1 | < 100 nM
18 | COc1cccc(CN(CCN2CCCC2)C(=O)c2cc3ccc(-c4cn[nH]c4)cc3[nH]2)c1 | < 100 nM
19 | COc1cccc(CNC(=O)c2cnc3cc(-c4cn[nH]c4)ccn23)c1 | < 100 nM
20 | O=C(NCCc1cccnc1)c1c[nH]c2cc(-c3cn[nH]c3)ccc12 | 100 to 1000 nM
21 | COc1cccc(CNC(=O)c2cc3ccc(-c4cn[nH]c4)nc3[nH]2)c1 | < 100 nM
22 | COc1cccc(CN(CC2CC2)C(=O)c2n[nH]c3cc(-c4cn[nH]c4)ccc23)c1 | < 100 nM
23 | COc1cccc(CNC(=O)c2nn(CCN(C)C)c3cc(-c4ccncc4)ccc23)c1 | < 100 nM
24 | COc1cccc(CNC(=O)c2nn(CC3CC3)c3cc(-c4ccnc(N)n4)ccc23)c1 | < 100 nM
25 | COc1cccc(CNC(=O)c2cc3ccc(-c4cn[nH]c4)cc3n2CCCO)c1 | < 100 nM
26 | O=C(NCc1ccccc1)c1cnc2cc(-c3cn[nH]c3)ccn12 | < 100 nM

More lines, now with the values ahead:

Row | IC50 | Compound
27 | < 100 nM | COc1cccc(CN(CCCN2CCN(C)CC2)C(=O)c2cc3ccc(-c4cn[nH]c4)nc3[nH]2)c1
28 | < 100 nM | COc1cccc(CN(C(=O)c2cc3ccc(-c4cn[nH]c4)nc3[nH]2)C2CC2)c1
29 | < 100 nM | COc1cccc(CNC(=O)c2nn(CCN(C)C)c3cc(-c4cn[nH]c4)ccc23)c1
30 | < 100 nM | Cc1ccccc1CNC(=O)c1n[nH]c2cc(-c3cn[nH]c3)ccc12
31 | < 100 nM | COc1cccc(CNC(=O)c2nn(C)c3cc(-c4cn[nH]c4)ccc23)c1
32 | < 100 nM | COc1ccccc1CNC(=O)c1n[nH]c2cc(-c3cn[nH]c3)ccc12
33 | < 100 nM | COc1cccc(CN(CCN(C)C)C(=O)c2cc3ccc(-c4cn[nH]c4)nc3[nH]2)c1
34 | < 100 nM | COc1cccc(CN(CCN(C)C)C(=O)c2n[nH]c3cc(-c4cn[nH]c4)ccc23)c1
35 | < 100 nM | COc1cccc(CN(CCCN(C)C)C(=O)c2cn(C)c3cc(-c4cn[nH]c4)ccc23)c1
36 | < 100 nM | COc1cccc(CN(C)C(=O)c2n[nH]c3cc(-c4cn[nH]c4)ccc23)c1
37 | < 100 nM | COc1cccc(CNC(=O)c2cn(C)c3cc(-c4cn[nH]c4)ccc23)c1
38 | < 100 nM | COc1ccc2c(c1)CC(c1cc(=O)n3cc(-c4cn[nH]c4)ccc3n1)CO2 (configuration not stated)
39 | < 100 nM | COc1cccc(CN(CCN2CCCC2)C(=O)c2cc3ccc(-c4cn[nH]c4)nc3[nH]2)c1
40 | < 100 nM | COc1cccc(CNC(=O)c2cc3ccc(-c4cn[nH]c4)nc3n2CCN2CCCC2)c1
41 | < 100 nM | COc1cccc(CNC(=O)c2cc3ccc(-c4cn[nH]c4)cc3[nH]2)c1
42 | < 100 nM | COc1cccc(CCNC(=O)c2n[nH]c3cc(-c4cn[nH]c4)ccc23)c1
43 | < 100 nM | COc1cccc(CNC(=O)c2cc3ccc(-c4cn[nH]c4)nc3n2C)c1
44 | < 100 nM | COc1cccc(CNC(=O)c2[nH]c3cc(-c4cn[nH]c4)ccc3c2CN2CCN(C)CC2)c1
45 | < 100 nM | COc1cccc(CN(C)C(=O)c2cc3ccc(-c4cn[nH]c4)cc3[nH]2)c1
46 | < 100 nM | COc1cccc(CNC(=O)c2n[nH]c3cc(-c4cn[nH]c4)ccc23)c1
47 | < 100 nM | COc1cccc(CN(CCN(C)C)C(=O)c2cn3cc(-c4cn[nH]c4)ccc3n2)c1
48 | < 100 nM | COc1cccc(CN(C)C(=O)c2cc3ccc(-c4cn[nH]c4)nc3[nH]2)c1
49 | < 100 nM | O=C(NCC1CCCCC1)c1c[nH]c2cc(-c3cn[nH]c3)ccc12
50 | < 100 nM | COc1cccc(CNC(=O)c2cc3ccc(-c4cn[nH]c4)nc3n2CCCO)c1
51 | < 100 nM | COc1cccc(CNC(=O)c2c[nH]c3cc(-c4cn[nH]c4)ccc23)c1
52 | < 100 nM | COc1cccc(CN(CCN(C)C)C(=O)c2cnc3cc(-c4cn[nH]c4)ccn23)c1

From the Kinase Knowledgebase extract (Sharma et al. 2016)
